Measured values from patent US9101620B2, “Polymorph of 3-(substituteddihydroisoindolinone-2-yl)-2,6-dioxopiperidine, and pharmaceutical compositions thereof” (Nanjing Cavendish Bio-Engineering Technology Co., Ltd., priority 2009, dated 2015).
“Also recorded” adds a separate entry of the source. Values belong to the molecule of their own block, whether it stands above or below them.

Legend:
Format in all cases: physicochemical
[1] = Oxidation destruction (30% H2O2), related substances by HPLC
Method: (§1) Oxidation destruction: 50 mg of sample weighted accurately was added into measuring flask of 100 mL, and 10 mL 30% H2O2 was added. After standing at room temperature for 2 hour, the mixture was diluted with mobile phase to scale and shook to be homogeneous, and determined by HPLC.
(§2) HPLC conditions and system applicability: octadecylsilane bonded silica as the filler; 0.01 mol/L of potassium dihydrogen phosphate (adjusted to pH 3.5 by phosphoric acid)-methanol-acetonitrile (80:15:5) as the mobile phase; detection wavelength was 240 nm; the number of theoretical plates should be not less than 2000, calculated according to the peak of lenalidomide. The resolution of the peak of 3-(4-amino-1-oxo-1,3-dihydro-2H-isoindole-2-yl)-piperidine-2,6-dione from the peaks of adjacent impurities should meet requirements.
(§3) Determination method: sample was dissolved in mobile phase to be the solution containing 0.5 mg per 1 mL. 20 μL of such solution was injected into liquid chromatograph and chromatogram was recorded until fourfold the retention time of major component peak. If there were impurities peaks in the chromatogram of sample solution, total impurities and sole impurity were calculated by normalization method on the basis of peak area.

[2] = Acid destruction (0.1 mol/L HCl), related substances by HPLC
Method: as §1, with “Acid” for “Oxidation”, “0.1 mol/L HCl solution” for “30% H2O2”, “1” for “2”, “hour, an equal amount of 0.1 mol/L NaOH solution was added for neutralization. Then” for “hour,”
as §2, §3

[3] = Solubility test according to Chinese Pharmacopoeia Edition 2005; conditions: for Dissolving status: within 30 minutes
Method: Test was performed according to the Examples of Chinese Pharmacopoeia Edition 2005. Method: a definite quantity of the Polymorph I of 3-(4-amino-1-oxo-1,3-dihydro-2H-isoindole-2-yl)-piperidine-2,6-dione (hemihydrate) measured accurately was added into a certain quantity of solvent slowly, while the mixture was shaken strongly for 30 seconds every 5 minutes and the dissolving status within 30 minutes was observed. Results were listed in Tab. 1.
(§4) Test was performed according to the Examples of Chinese Pharmacopoeia Edition 2005. Method: a definite quantity of the (acetonitrile) solvated Polymorph II of 3-(4-amino-1-oxo-1,3-dihydro-2H-isoindole-2-yl)-piperidine-2,6-dione measured accurately was added into a certain quantity of solvent slowly, while the mixture was shaken strongly for 30 seconds every 5 minutes and the dissolving status within 30 minutes was observed. Results were listed in Tab. 61.
as §4, with “(acetone)” for “(acetonitrile)”, “polymorph III” for “Polymorph II”, “slowly” for “slowly,”, “11.” for “61.”

[4] = High humidity test (room temperature, 75±5% relative humidity); conditions: for Change of appearance and content (in words) / Moisture absorption (in words): high humidity test, summary; for Appearance / Content / Weight gain of moisture absorption: room temperature, 75±5% relative humidity
Method: (§5) The raw material of Polymorph 1 of 3-(4-amino-1-oxo-1,3-dihydro-2H-isoindole-2-yl)-piperidine-2,6-dione (hemihydrate) was distributed homogeneously in open petri dish with thickness of the raw material not more than 5 mm and put into thermostatic and humidostatic incubator at room temperature (about 25° C.) and 75±5% relative humidity. Sample was tested at the 5th and 10th day respectively and the results were contrasted with that of the Day 0. Results were listed in Tab. 4. After high humidity test of 75±5% relative humidity for 10 days, the X-ray powder diffraction pattern was shown in FIG. 9; DSC diagram was in FIG. 10-1; TGA diagram was in FIG. 10-2.
as §5, with “Polymorph II” for “Polymorph 1”, “3-(4-amino-1-oxo-1,3-dihydro-2H-isoindole-2-yl)-piperidine-2,6-dione” for “3-(4-amino-1-oxo-1,3-dihydro-2H-isoindole-2-yl)-piperidine-2,6-dione (hemihydrate)”, “Tab. 9.” for “Tab. 4.”, “FIG. 20;” for “FIG. 9;”, “FIG. 21-1;” for “FIG. 10-1;”, “FIG. 21-2.” for “FIG. 10-2.”
as §5, with “Polymorph III” for “Polymorph 1”, “3-(4-amino-1-oxo-1,3-dihydro-2H-isoindole-2-yl)-piperidine-2,6-dione” for “3-(4-amino-1-oxo-1,3-dihydro-2H-isoindole-2-yl)-piperidine-2,6-dione (hemihydrate)”, “Tab. 14.” for “Tab. 4.”, “FIG. 31;” for “FIG. 9;”, “FIG. 32-1;” for “FIG. 10-1;”, “FIG. 32-2.” for “FIG. 10-2.”

[5] = Destruction test: impurities in raw materials before destruction (HPLC)
Description: The methods of destruction experiment of the Polymorph I of this invention (hereinafter referred to as “Polymorph I”) contrasting with the Polymorph A and B of 3-(4-amino-1-oxo-1,3-dihydro-2H-isoindole-2-yl)-piperidine-2,6-dione prepared by the method in CN 1871003A (hereinafter referred to as “Polymorph A” and “polymorph B”) and results of stability are followed:
as §2, §3

[6] = Observation test of long-term sample storage (crystal transformation); conditions: long-term sample storage in high humidity; DSC scanning
[7] = 30% H2O2, room temperature, 2 hour
[8] = 0.1 mol/L HCl, room temperature, 1 hour

Major impurity, peak tR5.649-5.660 [1, 7]: 0.09% | Major impurity, peak tR10.372-10.401 [1, 7]: 0.03% | Major impurity, peak tR32.279-32.318 [1, 7]: 0.01% | Major impurity, peak tR35.063-35.098 [1, 7]: 0.02% | Total impurities generated by oxidation destruction [1, 7]: impurities: 0.16% | Chemical stability (in words) ([1]; oxidating condition / oxidation destroy experiment): better stability | Major impurity, peak tR4.717-4.737 [2, 8]: 0.20% | Major impurity, peak tR7.367-7.381 [2, 8]: 0.41% | Major impurity, peak tR11.067-11.100 [2, 8]: 0.01% | Total impurities generated by 0.1 mol/L acid destruction for 1 hour [2, 8]: impurities: 0.62% | Chemical stability (in words) ([2]; acid condition / 0.1 mol/L diluted HCl solution): better stability | Conclusion (solubility) ([3]; 0.1 mol/L HCl solution): slightly | Conclusion (solubility) ([3]; 0.1 mol/L HCl solution, listed as Polymorph 1): slightly soluble | Dissolving status ([3]; 0.1 mol/L HCl solution): fully | Conclusion (solubility) ([3]; 0.1 mol/L NaOH solution): sparingly | Conclusion (solubility) ([3]; 0.1 mol/L NaOH solution, listed as Polymorph 1): sparingly soluble | Dissolving status ([3]; 0.1 mol/L NaOH solution): fully | Conclusion (solubility) ([3]; DMF (N,N-dimethylformamide), listed as Polymorph 1): soluble | Dissolving status ([3]; DMF): fully | Conclusion (solubility) ([3]; DMSO (dimethylsulfoxide)): freely | Conclusion (solubility) ([3]; DMSO (dimethylsulfoxide), listed as Polymorph 1): freely soluble | Dissolving status ([3]; DMSO): fully | Conclusion (solubility) ([3]; acetic acid, listed as Polymorph 1): soluble | Dissolving status ([3]; acetic acid): fully | Conclusion (solubility) ([3]; acetone): slightly | Conclusion (solubility) ([3]; acetone, listed as Polymorph 1): slightly soluble | Dissolving status ([3]; acetone): fully | Conclusion (solubility) ([3]; acetonitrile): slightly | Conclusion (solubility) ([3]; acetonitrile, listed as Polymorph 1): slightly soluble | Dissolving status ([3]; acetonitrile): fully | Conclusion (solubility) ([3]; ethanol): very slightly | Conclusion (solubility) ([3]; ethanol, listed as Polymorph 1): very slightly soluble | Dissolving status ([3]; ethanol): fully | Conclusion (solubility) ([3]; ethyl acetate): very slightly | Conclusion (solubility) ([3]; ethyl acetate, listed as Polymorph 1): very slightly soluble | Dissolving status ([3]; ethyl acetate): fully | Conclusion (solubility) ([3]; methanol): slightly | Conclusion (solubility) ([3]; methanol, listed as Polymorph 1): slightly soluble | Dissolving status ([3]; methanol): fully | Conclusion (solubility) ([3]; water): very slightly | Conclusion (solubility) ([3]; water, listed as Polymorph 1): very slightly soluble | Dissolving status ([3]; water): fully | Change of appearance and content (in words) [4]: few obvious change | Moisture absorption (in words) [4]: very slight moisture absorption | Appearance ([4]; 0 days): off-white powder | Content ([4]; 0 days): 99.87% | Appearance ([4]; 5 days): off-white powder | Content ([4]; 5 days): 99.85% | Weight gain of moisture absorption ([4]; 5 days): 0.65% | Appearance ([4]; 10 days): off-white powder | Content ([4]; 10 days): 99.85% | Weight gain of moisture absorption ([4]; 10 days): 0.66% | Major impurity, peak tR5.872-5.948 [5]: 0.01% | Major impurity, peak tR10.961-11.165 [5]: 0.03% | Total impurities in raw materials before destruction ([5]; HPLC peak area normalization): impurities: 0.04%
Compound: Nc1cccc2c1CN(C1CCC(=O)NC1=O)C2=O (single isomer, unassigned) [Polymorph I, 3-(4-amino-1-oxo-1,3-dihydro-2H-isoindole-2-yl)-piperidine-2,6-dione]

Conclusion (solubility) ([3]; 0.1 mol/L HCl solution): slightly soluble | Dissolving status ([3]; 0.1 mol/L HCl solution): fully | Conclusion (solubility) ([3]; 0.1 mol/L NaOH solution): sparingly soluble | Dissolving status ([3]; 0.1 mol/L NaOH solution): fully | Conclusion (solubility) ([3]; DMF (N,N-dimethylformamide)): soluble | Dissolving status ([3]; DMF): fully | Conclusion (solubility) ([3]; DMSO (dimethylsulfoxide)): soluble | Dissolving status ([3]; DMSO): fully | Conclusion (solubility) ([3]; acetic acid): sparingly soluble | Dissolving status ([3]; acetic acid): fully | Conclusion (solubility) ([3]; acetone): slightly soluble | Dissolving status ([3]; acetone): fully | Conclusion (solubility) ([3]; acetonitrile): slightly soluble | Dissolving status ([3]; acetonitrile): fully | Conclusion (solubility) ([3]; ethanol): very slightly soluble and very | Dissolving status ([3]; ethanol): fully | Conclusion (solubility) ([3]; ethyl acetate): very slightly soluble and very | Dissolving status ([3]; ethyl acetate): fully | Conclusion (solubility) ([3]; methanol): slightly soluble | Dissolving status ([3]; methanol): fully | Dissolving status ([3]; water): cannot fully | Change of appearance and content (in words) [4]: few obvious change | Moisture absorption (in words) [4]: lower moisture absorption | Appearance ([4]; 0 days): off-white powder | Content ([4]; 0 days): 99.86% | Appearance ([4]; 5 days): off-white powder | Content ([4]; 5 days): 99.83% | Weight gain of moisture absorption ([4]; 5 days): 1.25% | Appearance ([4]; 10 days): off-white powder | Content ([4]; 10 days): 99.82% | Weight gain of moisture absorption ([4]; 10 days): 1.37%
Compound: Nc1cccc2c1CN(C1CCC(=O)NC1=O)C2=O (single isomer, unassigned) [Polymorph III, 3-(4-amino-1-oxo-1,3-dihydro-2H-isoindole-2-yl)-piperidine-2,6-dione]
Conclusion (solubility) ([3]; water): very slightly soluble; also recorded: practically | Crystal transformation [6]: a small amount of Polymorph III had transformed to Polymorph I

Conclusion (solubility) ([3]; 0.1 mol/L HCl solution): sparingly soluble | Dissolving status ([3]; 0.1 mol/L HCl solution): fully | Conclusion (solubility) ([3]; 0.1 mol/L NaOH solution): slightly soluble | Dissolving status ([3]; 0.1 mol/L NaOH solution): fully | Conclusion (solubility) ([3]; DMF (N,N-dimethylformamide)): freely soluble | Dissolving status ([3]; DMF): fully | Conclusion (solubility) ([3]; DMSO (dimethylsulfoxide)): freely soluble | Dissolving status ([3]; DMSO): fully | Conclusion (solubility) ([3]; acetic acid): sparingly soluble | Dissolving status ([3]; acetic acid): fully | Conclusion (solubility) ([3]; acetone): slightly soluble | Dissolving status ([3]; acetone): fully | Conclusion (solubility) ([3]; acetonitrile): slightly soluble | Dissolving status ([3]; acetonitrile): fully | Conclusion (solubility) ([3]; ethanol): very slightly soluble | Dissolving status ([3]; ethanol): fully | Conclusion (solubility) ([3]; ethyl acetate): very slightly soluble | Dissolving status ([3]; ethyl acetate): fully | Conclusion (solubility) ([3]; methanol): very slightly soluble | Dissolving status ([3]; methanol): fully | Dissolving status ([3]; water): cannot fully | Change of appearance and content (in words) [4]: few obvious change | Moisture absorption (in words) [4]: lower moisture absorption | Appearance ([4]; 0 days): off-white powder | Content ([4]; 0 days): 99.89% | Appearance ([4]; 5 days): off-white powder | Content ([4]; 5 days): 99.87% | Weight gain of moisture absorption ([4]; 5 days): 1.33% | Appearance ([4]; 10 days): off-white powder | Content ([4]; 10 days): 99.87% | Weight gain of moisture absorption ([4]; 10 days): 2.15%
Compound: Nc1cccc2c1CN(C1CCC(=O)NC1=O)C2=O (single isomer, unassigned) [Polymorph II, 3-(4-amino-1-oxo-1,3-dihydro-2H-isoindole-2-yl)-piperidine-2,6-dione]
Conclusion (solubility) ([3]; water): nearly insoluble; also recorded: practically | Crystal transformation [6]: a small amount of Polymorph II had transformed to Polymorph I
